Assay results reported in US8420696B2, “Use of low-dose ladostigil for neuroprotection” (priority 2005, dated 2013).

Columns and labels:
MAO-A = target: T1, MAO-A (Rattus norvegicus, UniProt P21396); assay: Example 2: MAO-A activity in homogenates of striatum; format: in vivo, rats; conditions: chronic 1 mg/kg; for MAO-A (%) inhibition: Striatum
T1 construct: from tissue; host or cells: striatum homogenate of dosed Sprague-Dawley rats
T1 sequence (P21396 1-526): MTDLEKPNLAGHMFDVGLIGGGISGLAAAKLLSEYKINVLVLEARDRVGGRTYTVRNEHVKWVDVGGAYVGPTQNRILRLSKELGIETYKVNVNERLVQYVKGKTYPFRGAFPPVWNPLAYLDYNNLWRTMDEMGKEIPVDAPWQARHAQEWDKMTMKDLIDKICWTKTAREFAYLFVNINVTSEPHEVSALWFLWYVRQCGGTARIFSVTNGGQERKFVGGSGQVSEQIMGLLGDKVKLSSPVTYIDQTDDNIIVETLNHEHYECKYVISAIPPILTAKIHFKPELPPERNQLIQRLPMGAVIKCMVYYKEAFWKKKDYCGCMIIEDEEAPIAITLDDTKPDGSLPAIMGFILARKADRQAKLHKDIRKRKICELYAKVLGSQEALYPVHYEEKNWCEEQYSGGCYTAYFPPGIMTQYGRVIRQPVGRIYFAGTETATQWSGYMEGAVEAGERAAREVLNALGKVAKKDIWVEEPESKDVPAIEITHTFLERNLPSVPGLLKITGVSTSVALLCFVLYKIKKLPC
Description: The effect of chronic ladostigil treatment on ChE activity in the cortex and hippocampus of rats was determined one week after icv STZ in 12 rats (3 treated with water and 9 with ladostigil). The effect of acute treatment with ladostigil 1 or 17 mg/kg was determined 2 hrs after drug administration. […] The brain was rapidly removed, washed with saline on ice and the cortex, hippocampus and striatum dissected out, quickly weighed and stored at −70° C. until assay. Total ChE activity in the cortex and hippocampus was measured as described in Wang et al., Gender differences in the effect of rivastigmine on brain cholinesterase activity and cognitive function in rats, Neuropharmacology (2000) 39:497-506, using the spectrophotometric method of Ellman et al., A new and rapid colorimetric determination of acetylcholinesterase activity, Biochem. Pharmacol. (1961) 7:88-95 with acetylthiocholine (Sigma Ltd) as a substrate using homogenate of 100 mg tissue in 1 ml phosphate buffer. To determine only butyrylcholinesterase (BuChE) activity the amounts of tissue/ml of buffer were increased 3-fold and butyrylthiocholine (Sigma Ltd) was used as a substrate. MAO A and B activity was measured in homogenates of striatum as described in Weinstock et al., Limited potentiation of blood pressure response to oral tyramine by brain-selective monoamine oxidase A-B inhibitor, TV-3326 in conscious rabbits, Neuropharmacology (2002) 43:999-1005.

cultured microglia = assay: Release of NO from cultured microglia induced by LPS; format: cell-based; conditions: concentrations of 0.1-10 μM; preliminary data
Description: It is therefore likely that the neuroprotective effect of ladostigil resulted from other actions of the drug. These could include a direct effect on microglia as shown in preliminary data from experiments in our laboratory in which concentrations of 0.1-10 μM reduced by 20-40% the release of NO from cultured microglia induced by LPS. These concentrations are too low to inhibit ChE in microglia.

[1] = tested on: rats injected icv with STZ (spatial memory); assay: Morris water maze spatial memory after icv STZ; format: in vivo, Sprague-Dawley rats; conditions: icv STZ + chronic ladostigil 1 mg/kg vs icv STZ only
Description: Male Sprague-Dawley rats (63) weighing 320-340 g, aged 4 months, were anesthetized by an intraperitoneal injection of Equithesin 0.3 ml/kg. STZ (0.5 mg) dissolved in 2 μl artificial cerebrospinal fluid (CSF) was injected into each lateral ventricle of 45 rats. The stereotaxic co-ordinates for icv injection were: 0.9 mm posterior, 1.8 mm lateral and 3.8 mm ventral from the bregma level. Control rats (18) received a bilateral injection of 2 μl artificial CSF. STZ-injected rats (25) were given ladostigil (1 mg/kg of the hemitartrate salt/day) orally in a volume of (1 ml/kg) from one week before, until 1 or 8 weeks after icv STZ. The remaining 20 rats received 1 ml/kg water. The rats were housed two per cage with free access to food and water until the behavioral, enzymatic and cytochemical measurements were completed. […]
Group means of 3 measures in the object and place recognition tests, duration of exploration in first and second phases and discrimination index were submitted to one way ANOVA. Mean daily escape latencies for trial 1 and trial 2 in the MWM in each group were analyzed by repeated measures ANOVA for DAY and GROUP followed by Duncan's post hoc test where appropriate. Histological data were analyzed by univariate ANOVA followed by Duncan's post hoc test. […]

C#CCN[C@@H]1CCc2ccc(OC(=O)N(C)CC)cc21 [ladostigil, R(+)-6-(N-methyl,N-ethyl-carbamoyloxy)-N′-propargyl-1-aminoindan]
MAO-A (%) inhibition (MAO-A; 60 min): 2.8 ± 2.5%
MAO-A (%) inhibition (MAO-A; 120 min): 3.8 ± 2.0%
Effect on striatal MAO-A activity (MAO-A): no effect
Reduction of the release of NO from cultured microglia induced by LPS (cultured microglia): 20-40%
Escape latency in Morris water maze, trial 1, means over 5 days [1]: rats given icv STZ only had significantly higher latencies than those injected with CSF or STZ and treated with ladostigil
